≈ marks a conversion by molar mass, not a printed value. Read-outs that look alike come from different tables or passages of the source.
Tests used:
[1] = system: nitric oxide (NO) production; assay: Nitric oxide (NO) production inhibitory assay (Griess method, LPS-stimulated J774.2 macrophages); assay type: cell-based, mouse
Method: The J774.2 cell line (mouse macrophage) was obtained from (European Collection of Cell Cultures, Salisbury, UK). It was cultivated in […] flasks (IWAKI, Asahi Techno Glass, Shizuoka, Japan), containing DMEM (Sigma-Aldrich, Steinheim, Germany) and fetal bovine serum (FBS) (10%) (GIBCO, New York, NY, USA) and 1% streptomycin/penicillin, and were incubated in 5% CO2 at 37 °C. Fully-grown cells (10^6 cells per mL) were transferred into the 96-well plate, and NO synthase was added into the wells by E. coli (30 μg mL^−1) lipopolysaccharide (LPS) (DIFCO Laboratories, Detroit, MI, USA) for NO production. Samples were tested with different concentrations (1, 10, and 25 μg mL^−1), and placed in CO2 (5%) at 37 °C. N^G monomethyl L-arginine acetate (LNMMA) was used as a standard NO inhibitor. Griess method was used to analyze the accumulation of nitrite in the cells.[35] IC50 values were calculated by a Microsoft Excel-based formula.

[2] = Cytotoxicity MTT assay, BJ cells; assay type: cell-based; conditions: human, BJ normal human fibroblast cells, μM converted to μg mL^−1, read-out: IC50 cytotoxicity against human normal cell line (BJ)
Method: (§1) MCF-7 (breast cancer), NCI-H460 (lung cancer), HeLa (cervical cancer) cell lines, and BJ (normal human fibroblast) cell lines were collected from cell culture biobank (PCMD, ICCBS). DMEM medium was used for MCF-7, HeLa, and BJ, and RPMI (ATCC modified medium) was used for NCI-H460. The media was supplemented with 10% FBS, 100 IU mL^−1 of penicillin, and 100 μg mL^−1 of streptomycin, and kept at 37 °C in a 5% CO2 incubator. The inhibition was investigated by MTT assay. Briefly, 100 μL per well of cell solutions (10 × 10^4 cells per mL MCF-7 cells, 5 × 10^4 cells per mL NCI-H460 cells, 6 × 10^4 cells per mL HeLa cells, or 5 × 10^4 cells per mL BJ cells), were added into 96-well plate and incubated for 24 h at 37 °C, before treatment with 6.25–50 μM of compounds or positive control doxorubicin for 48 h. After this, 20 μL of MTT (5 mg mL^−1) was added to each well and then incubated for 4 h at 37 °C. Then 100 μL DMSO was added to each well to dissolve the purple formazan crystal. The absorbance was analyzed at 570 nm (MCF-7, NCI-H460, and HeLa) or 550 nm (BJ) using an ELISA plate reader.

[3] = system: MCF-7 (breast cancer) cell line; assay: Cytotoxicity MTT assay, MCF-7 cells; assay type: cell-based; conditions: Homo sapiens, MCF7, 48 h
Method: as §1

[4] = system: NCI-H460 (lung cancer) cell line; assay: Cytotoxicity MTT assay, NCI-H460 cells; assay type: cell-based; conditions: Homo sapiens, 48 h
Method: as §1

[5] = system: HeLa (cervical cancer) cell line; assay: Cytotoxicity MTT assay, HeLa cells; assay type: cell-based; conditions: Homo sapiens, 48 h
Method: as §1

[6] = J774.2 mouse macrophages, LPS 30 μg mL^−1, Griess method, read-out: IC50 against nitric oxide (NO) production

Structure (SMILES) | IC50 [1, 6] [µg/mL] | IC50 at 48 h [2] [µg/mL] | inhibition at 50 µM [3] [%] | inhibition at 50 µM [4] [%] | inhibition at 50 µM [5] [%] | melting point [°C] | IC50 ([1]; Mus musculus, J774.2, read-out: IC50 against nitric oxide (NO) production) [µg/mL] | IC50 against nitric oxide (NO) production ([1]; J774.2 mouse macrophages, LPS 30 μg mL^−1, Griess method) [µg/mL] | IC50 ([4]; read-out: IC50 against NCI-H460) [µg/mL]
CC1CC2(C)C(CCC3C2CCC2(C)C3CCC2(C)O)CC1=O (centres unmarked) [Compound 1, methasterone] | 23.9 ± 0.2 (≈ 75 µM) | 8.01 ± 0.52 (≈ 25.1 µM) | < 50 | < 50 | < 50 | – | – | – | –
C[C@@H]1C[C@@]2(C)[C@H](CC1=O)[C@H](O)[C@H](O)[C@@H]1[C@@H]2CC[C@@]2(C)[C@H]1CC[C@]2(C)O [Compound 2, 6β,7β,17β-Trihydroxy-2α,17α-dimethyl-5α-androstane-3-one] | 38.1 ± 0.5 (≈ 109 µM) | – | < 50 | < 50 | < 50 | 139 to 141 | – | – | –
CC1CC2(C)C(CC1=O)C(O)CC1C3CCC(C)(O)C3(C)CCC12O (stereo not drawn) [Compound 7, 6β,9α,17β-Trihydroxy-2α,17α-dimethyl-5α-androstane-3-one] | – | – | < 50 | < 50 | < 50 | 139 to 141 | 40.2 ± 3.3 (≈ 115 µM) | – | –
CC(=O)O.CNC(=N)NCCC[C@H](N)C(=O)O [LNMMA, N^G monomethyl L-arginine acetate, reference compound] | – | – | – | – | – | – | – | 24.2 ± 0.8 | –
COc1cccc2c1C(=O)c1c(O)c3c(c(O)c1C2=O)C[C@@](O)(C(=O)CO)C[C@@H]3O[C@H]1C[C@H](N)[C@H](O)[C@H](C)O1 [doxorubicin, reference compound] | – | – | – | – | – | – | – | – | 0.76 ± 0.05 (≈ 1.4 µM)

— publication PMC8985176, “Structural transformation of methasterone with Cunninghamella blakesleeana and Macrophomina phaseolina” (RSC Advances, 2022)
